In ChEMBL document CHEMBL3044852, “Synthesis of N-hydroxycinnamoyl amino acid ester analogues and their free radical scavenging and antioxidative activities” (Med Chem Res, 2012) one finds IC50 and Time data, which are given here for 15 molecules.

For orientation: IC50 means the concentration needed to halve the response being measured.

A value given as a limit tells only on which side of the number the result lay.

The nature of assay [1]: Antioxidant activity assessed as DPPH scavenging activity after 30 min by UV-vis spectroscopy. The class given is functional. A general note: Loss of DPPH colour is used to gauge radical scavenging.
Assay [2] can be described thus: Antioxidant activity against AAPH-induced hemolysis in Homo sapiens (human) RBC assessed as inhibition time at 10 uM by spectrophotometry. Format: functional, Erythrocyte.

Turning to `CCOC(=O)CNC(=O)/C=C/c1ccc(O)c(O)c1`, in assay [1], the IC50 turned out to be 12.8 µM. In addition, the Time in assay [2] is 180 min. `CCOC(=O)CNC(=O)/C=C/c1ccc(O)c(OC)c1`: the IC50 in assay [1] is 64.6 µM. Moreover, the Time in assay [2] worked out at 193 min. For `CCOC(=O)CNC(=O)/C=C/c1ccc(O)cc1`, in that order: over 200 µM and 138 min. Consider `CCOC(=O)[C@H](Cc1ccccc1)NC(=O)/C=C/c1ccc(O)c(O)c1`, for which the IC50 in assay [1] is 1.45 µM.

`CCOC(=O)[C@H](Cc1ccccc1)NC(=O)/C=C/c1ccc(O)c(OC)c1`: in assay [1], the IC50 was 52.4 µM. Moreover, in assay [2], the Time amounted to 198 min.

Turning to `CCOC(=O)[C@H](Cc1ccccc1)NC(=O)/C=C\c1ccc(O)cc1`, the IC50 in assay [1] is over 200 µM. In the case of `COC(=O)[C@H](Cc1ccc(O)cc1)NC(=O)/C=C/c1ccc(O)cc1`, in assay [1], the IC50 was over 200 µM. Still for that read-out and setting: the figure for `CCOC(=O)[C@@H](NC(=O)/C=C/c1ccc(O)c(OC)c1)C(C)C` is 87.2 µM.

Take `O=C1O[C@H]([C@@H](O)CO)C(O)=C1O` [ASCORBIC ACID]: the IC50 in assay [1] turned out to be 29.6 µM. With `O=C(O)/C=C/c1ccc(O)c(O)c1` [CAFFEIC ACID], in assay [1], the IC50 turned out to be 18.2 µM. On the same count and under the same terms, the figure for `O=C(O)/C=C/c1ccc(O)cc1` [COUMARIC ACID] is over 200 µM; for `CCOC(=O)/C=C/c1ccc(O)c(O)c1` [ETHYL CAFFEATE] it is 49 µM.

On to `CCOC(=O)/C=C/c1ccc(O)c(OC)c1` [ETHYL FERULATE], for which the IC50 in assay [1] was found to be 150 µM. Moreover, in assay [2], the Time is 150 min. On to `CCOC(=O)/C=C/c1ccc(O)cc1` [ETHYL P-COUMARATE], for which, in assay [1], the IC50 was over 200 µM. Take `COc1cc(/C=C/C(=O)O)ccc1O` [FERULATE]: the IC50 in assay [1] worked out at 50.1 µM. In addition, the Time in assay [2] stood at 148 min.
